The values that follow are results of earlier work, collected in patent publication US20090053307A1, “IMMEDIATE-RELEASE T[…] FOR IMPROVED ORAL ABSORPTION OF 7-[(E)]-T-BUTY-LOXYMINOMETHYL] CAMPTOTHECIN” (SIGMA-TAU INDUSTRIE FAR[…] S.P.A., priority 2005, published 2009).

The data set deals with large cell pulmonary carcinoma (not SCLC, H-460). To be noted: H-460 tumour line; from W097/31003.

The structures appear in SMILES notation.

`CCC1(O)C(=O)OCc2c1cc1n(c2=O)Cc2c-1nc1ccccc1c2C#N` (stereo not shown) [CPT 83]: the “activity compared with reference compound topotecan” value is “more active than topotecan”.
